Measured values taken from the supplement of paper PMC10307832.

How the values were obtained:
Experiment in all cases: relative viability (nuclei count vs DMSO), 5 days (fraction); higher = more cells survive
[1] = compound: CC1=C(CC(=O)O)c2cc(F)ccc2/C1=C\c1ccc([S+](C)[O-])cc1 [Sulindac] + N=C(N)NC(=N)NCCc1ccccc1 [Phenformin] (partner 250 µM)
Outline: (§1)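 Lung cancer cell lines in 1536-well plates got either a single drug or a fixed anchor-drug dose together with five library-drug doses (not always all listed) in √10 steps, by pin tool, on the day after seeding. Nuclei were counted after 5 days, and relative viability is the treated-to-vehicle ratio of nuclei counts. Values are medians of duplicate plates.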

[2] = compound: CC1=C(CC(=O)O)c2cc(F)ccc2/C1=C\c1ccc([S+](C)[O-])cc1 [Sulindac] + Nc1ncn([C@H]2C[C@H](O)[C@@H](CO)O2)c(=O)n1 [Decitabine] (partner 2 µM)
Outline: as §1

[3] = compound: O=c1[nH]cc(F)c(=O)[nH]1 [5-Fluorouracil] + CS(=O)(=O)CCNCc1ccc(-c2ccc3ncnc(Nc4ccc(OCc5cccc(F)c5)c(Cl)c4)c3c2)o1 [Lapatinib] (partner 2 µM)
Outline: as §1

[4] = compound: CN[C@@H]1C[C@H]2O[C@@](C)([C@@H]1OC)n1c3ccccc3c3c4c(c5c6ccccc6n2c5c31)C(=O)NC4 [Staurosporine] + Cc1nc(NC(=O)N2CCC[C@H]2C(N)=O)sc1-c1ccnc(C(C)(C)C(F)(F)F)c1 [Alpelisib] (partner 2 µM)
Outline: as §1

Row | Cell Line | relative viability ([1]; first compound 0.08 µM) | relative viability ([1]; first compound 0.253 µM) | relative viability ([1]; first compound 2.53 µM) | relative viability ([1]; first compound 8 µM) | relative viability ([2]; first compound 0.08 µM) | relative viability ([2]; first compound 0.253 µM) | relative viability ([2]; first compound 0.8 µM) | relative viability ([2]; first compound 2.53 µM) | relative viability ([2]; first compound 8 µM) | relative viability ([3]; first compound 0.02 µM) | relative viability ([3]; first compound 0.2 µM) | relative viability ([3]; first compound 0.6325 µM) | relative viability ([3]; first compound 2 µM) | relative viability ([4]; first compound 0.005 µM) | relative viability ([4]; first compound 0.01581 µM) | relative viability ([4]; first compound 0.05 µM) | relative viability ([4]; first compound 0.1581 µM) | relative viability ([1]; first compound 0.8 µM) | relative viability ([4]; first compound 0.5 µM)
1 | NCI-H2347 | 0.379 | 0.33 | 0.375 | 0.381 | 0.609 | 0.632 | 0.548 | 0.652 | 0.636 | 1.07 | 0.796 | 0.48 | 0.436 | 1.03 | 0.67 | 0.34 | 0.364 |  | 
2 | ABC-1 | 0.23 | 0.214 | 0.255 | 0.226 | 1.04 | 1.09 | 1.02 | 0.821 | 1.16 | 1.33 | 1.23 | 1.24 | 1.13 | 0.535 | 0.255 | 0.168 | 0.182 | 0.209 | 0.0986
3 | 201T | 0.478 | 0.435 | 0.451 | 0.486 | 0.879 | 0.874 | 0.818 | 0.848 | 0.928 | 1.05 | 0.964 | 0.479 | 0.376 | 1.03 | 0.973 | 0.874 | 0.715 | 0.314 | 0.59
4 | NCI-H1755 | 0.645 | 0.653 | 0.643 | 0.648 | 0.798 | 0.634 | 0.705 | 0.785 | 0.833 | 1.06 | 0.848 | 0.327 | 0.263 | 0.591 | 0.418 | 0.183 | 0.16 | 0.525 | 0.14
5 | NCI-H647 | 0.647 | 0.717 | 0.623 | 0.645 | 0.392 | 0.51 | 0.361 | 0.442 | 0.426 | 1.14 | 1.2 | 1.07 | 0.687 | 0.51 | 0.218 | 0.117 | 0.0645 | 0.246 | 0.0592
6 | NCI-H1355 | 0.451 | 0.506 | 0.44 | 0.46 | 0.325 | 0.343 | 0.366 | 0.338 | 0.366 | 0.97 | 0.899 | 0.39 | 0.311 | 0.718 | 0.422 | 0.21 | 0.215 |  | 0.203
7 | NCI-H1975 | 0.27 | 0.404 | 0.403 | 0.457 | 0.594 | 0.413 | 0.352 | 0.394 | 0.36 | 0.879 | 1.09 | 0.495 | 0.333 | 0.238 | 0.201 | 0.15 | 0.108 | 0.365 | 0.104
8 | BEN | 0.284 | 0.276 | 0.218 | 0.275 | 0.745 | 0.845 | 0.697 | 0.685 | 0.814 | 0.658 | 0.628 | 0.615 | 0.602 | 1.26 |  | 0.615 | 0.497 | 0.227 | 0.286
9 | NCI-H322M | 0.881 | 0.833 | 0.762 | 0.879 | 0.599 | 0.614 | 0.657 | 0.631 | 0.699 | 0.615 | 0.598 | 0.559 | 0.467 | 0.74 | 0.723 | 0.725 | 0.446 | 0.668 | 0.328
10 | SK-MES-1 | 0.798 | 0.77 | 0.662 | 0.73 | 0.378 | 0.418 | 0.304 | 0.436 | 0.386 | 0.471 | 0.494 | 0.373 | 0.357 | 0.849 | 0.534 | 0.246 | 0.18 | 0.591 | 0.177
11 | HOP-62 | 0.785 | 0.937 | 0.746 | 0.759 | 0.214 | 0.222 | 0.229 | 0.217 | 0.246 | 0.797 | 1.03 | 0.986 | 0.956 | 1.25 | 0.816 | 0.115 | 0.0862 |  | 0.138
12 | HCC-366 | 0.651 | 0.679 | 0.61 | 0.703 | 0.388 | 0.317 |  | 0.334 | 0.412 | 0.996 | 0.945 | 0.523 | 0.0471 | 0.363 |  | 0.0965 | 0.0438 | 0.587 | 0.0105
13 | NCI-H2405 | 0.395 | 0.455 | 0.389 | 0.465 | 0.803 | 0.723 | 0.713 | 0.749 | 0.823 | 1.06 | 1.22 | 1.06 | 0.63 | 0.185 | 0.131 | 0.101 | 0.075 | 0.505 | 0.0622
14 | A549 | 0.109 | 0.154 | 0.232 | 0.244 | 0.262 | 0.247 |  | 0.29 | 0.232 | 1.09 | 0.656 | 0.456 | 0.135 | 0.206 | 0.284 | 0.0899 | 0.0462 | 0.95 | 0.0282
15 | LXF-289 | 0.551 | 0.559 | 0.517 | 0.559 | 0.404 | 0.416 | 0.372 | 0.381 | 0.452 | 0.897 | 0.782 | 0.333 | 0.285 | 0.902 |  | 0.197 | 0.0563 | 0.491 | 0.0673
16 | NCI-H1793 | 0.404 | 0.396 | 0.372 | 0.333 | 0.406 | 0.521 |  | 0.486 | 0.588 | 0.581 | 0.853 | 0.471 | 0.347 | 0.774 | 0.506 | 0.593 | 0.383 | 0.272 | 0.179
17 | NCI-H1734 | 0.402 | 0.337 | 0.396 | 0.496 | 0.524 | 0.522 | 0.435 | 0.523 | 0.496 | 1.11 | 1.14 | 0.808 | 0.392 | 0.635 | 0.344 | 0.239 | 0.202 |  | 0.149
18 | LU99A | 0.86 | 0.853 | 0.827 | 1.11 | 1.05 | 0.806 | 0.86 | 0.782 | 1.17 | 1.03 | 1.03 | 0.77 | 0.551 | 0.341 | 0.153 | 0.19 | 0.105 | 0.83 | 0.118
19 | RERF-LC-KJ | 0.43 | 0.418 | 0.455 | 0.45 | 0.667 | 0.706 | 0.608 | 0.63 | 0.751 | 0.903 | 0.824 | 0.846 | 0.704 | 0.916 | 0.637 | 0.392 | 0.282 | 0.414 | 0.21
20 | NCI-H2087 | 0.58 | 0.529 | 0.431 | 0.51 | 0.186 | 0.324 | 0.254 | 0.246 | 0.323 | 1.03 | 1.22 | 0.748 | 0.548 | 0.875 | 0.624 | 0.449 | 0.118 |  | 0.125
21 | NCI-H2170 | 0.471 | 0.407 | 0.384 | 0.432 | 0.521 | 0.461 | 0.436 | 0.434 | 0.455 | 0.282 | 0.317 | 0.273 | 0.27 | 0.903 | 0.611 | 0.568 | 0.377 | 0.411 | 0.281
22 | HCC-78 | 0.792 | 0.689 | 0.763 | 0.738 | 0.652 | 0.672 | 0.597 | 0.653 | 0.648 | 0.768 | 1.2 | 0.265 |  | 0.394 | 0.305 | 0.241 | 0.281 | 0.614 | 0.237
23 | NCI-H1395 | 0.427 | 0.448 | 0.44 | 0.526 | 0.726 | 0.689 | 0.664 | 0.659 | 0.832 | 0.724 | 1.12 | 1.01 | 0.825 | 1.05 | 0.474 | 0.366 | 0.498 | 0.478 | 0.271
24 | H3255 | 0.333 | 0.295 | 0.336 | 0.335 | 0.577 | 0.662 | 0.503 | 0.566 | 0.615 | 0.269 | 0.264 | 0.255 | 0.257 | 0.612 | 0.367 | 0.215 | 0.174 | 0.357 | 0.0798
25 | HCC-15 | 0.54 | 0.468 | 0.491 | 0.57 | 0.708 | 0.625 | 0.548 | 0.543 | 0.661 | 0.967 | 0.898 | 0.533 | 0.314 | 0.887 |  | 0.64 | 0.453 | 0.323 | 0.262
26 | NCI-H838 | 0.519 | 0.652 | 0.518 | 0.6 | 0.497 | 0.476 | 0.425 | 0.45 | 0.507 | 0.918 | 1.03 | 0.433 | 0.271 | 0.274 | 0.208 | 0.19 | 0.246 | 0.364 | 0.114
27 | NCI-H2023 | 0.423 | 0.498 | 0.419 | 0.571 | 0.233 | 0.234 | 0.203 | 0.206 | 0.254 | 0.719 | 0.234 | 0.0995 | 0.113 | 0.56 | 0.28 | 0.274 | 0.15 | 0.325 | 0.0702
28 | HCC-44 | 0.181 | 0.205 | 0.159 | 0.261 | 0.976 | 0.909 | 0.871 | 0.918 | 0.961 | 1.05 | 0.974 | 0.609 | 0.311 | 0.441 | 0.167 | 0.106 | 0.11 | 0.186 | 0.0846
29 | COR-L23 | 0.506 | 0.487 | 0.51 | 0.549 | 0.436 | 0.446 | 0.425 | 0.421 | 0.526 | 1.03 | 0.921 | 0.48 | 0.253 | 0.204 | 0.226 | 0.143 | 0.0629 | 0.339 | 0.0497
